{
  "source": "patent US20040028639A1",
  "about": "“Cholesterol sulfate compositions for enhancement of stratum corneum function” (priority 1999, published 2004)",
  "key": {"[1]": {"test_system": "skin (back of hand), stratum corneum", "test": "skin flakiness by D-Squame Discs Method and Image Analysis", "assay_type": "in vivo, human", "conditions": "0.5% cholesterol sulfate in a water and oil emulsion base, right hand, twice a day", "procedure": "A study is conducted to determine the effect of cholesterol sulfate on skin flakiness, as an indicator of its effect in reducing desquamation. Fifteen subjects between the ages of 21 and 65 years are selected for the study. The subjects report for the study without moisturizers or any other products on their hands and their baseline measurements are taken. The subjects are given a product containing 0.5% cholesterol sulfate in a water and oil emulsion base to take home and self-administer on their right hands only, twice a day in the morning after washing and in the evening at least 15 minutes before bedtime for four weeks. The left hand serves as the untreated control site. The subjects are only allowed to use the test product and specifically log its use in a daily diary. At the end of two and four weeks the subjects return for testing without applying the product for at least 12 hours and they are re-evaluated under the same conditions.\nEvaluation of flakiness is determined via the D-Squame Discs Method and Image Analysis. Briefly, four D-Squame discs are firmly pressed on the back of each hand with hand held uniform pressure device and removed by gently pulling away from the skin. […] Desquamation is evaluated from the D-Squame discs via the image analyzer. […]\nAn OPTIMA image analyzer is used to evaluate skin flakiness. […] The average Gray Value corresponding to the sample density is measured. […]"}, "Matek skin equivalents": {"test_system": "Matek skin equivalents", "test": "stratum corneum thickness and cohesion in skin equivalents (histology)", "assay_type": "cell-based", "procedure": "FIG. 1 illustrates the condition of stratum corneum thickness under different cholesterol sulfate treatment regimens, as described in Example I: (A) control (no treatment); (B) 1% ethanol vehicle control; (C) cholesterol sulfate, 0.01 μg/ml; (D) cholesterol sulfate, 0.1 μg/ml; (E) cholesterol sulfate, 1 μg/ml; (F) cholesterol sulfate 10 μg/ml.\nThis example illustrates the ability of cholesterol sulfate to retard desquamation and maintain stratum corneum thickness.\nMatek skin equivalents are obtained and prepared for use in accordance with the supplier's protocol. Equilibrated skins are treated topically with dilutions of cholesterol sulfate. Cholesterol sulfate is solubilized 1 mg/ml in ethanol, and serially diluted 10-fold to yield doses of 0.01, 0.1, 1 and 10 μg/ml. Each dose is added topically to an equivalent, using a 100 μl volume. Treatment is repeated daily along with media replacement over a three day period. One sample is treated with 1% ethanol, representing a vehicle control. Following treatment, equivalents are fixed according to standard protocol, and sent for histological preparations. FIGS. 1A-F show stained sections of the two controls plus the treatment samples. […] Some compaction is seen in the ethanol treated sample, which is believed due to dehydration of the sample combined with lipid removal."}},
  "note": "Where a name gives a salt, the structure may show the parent alone.",
  "data": [
    {"compound": "CC(C)CCC[C@@H](C)[C@H]1CC[C@H]2[C@@H]3CC=C4C[C@@H](OS(=O)(=O)O)CC[C@]4(C)[C@H]3CC[C@]12C", "note": "[cholesterol sulfate]", "values": [
      {"measurement": "decrease in flakiness relative to baseline", "setting": "[1]; after 4 weeks", "result": 24.1, "unit": "%"},
      {"measurement": "decrease in flakiness relative to baseline", "setting": "[1]; after two weeks", "result": 22.5, "unit": "%"},
      {"measurement": "organization and cohesion of the stratum corneum (stained sections)", "setting": "Matek skin equivalents; 0.01, 0.1, 1 and 10 μg/ml, 100 μl topically, daily over three days, vs media control, effect increases with amount", "result": "gradual increase in organization and cohesion of the stratum corneum"},
      {"measurement": "thickness of the layers of the stratum corneum", "setting": "Matek skin equivalents; application to skin cells, FIGS. 1C-F (0.01-10 μg/ml)", "result": "distinct, dose-dependent, increase in the thickness"}
    ]}
  ]
}
